This is an account of results in paper PMC8120209, “Longitudinal evaluation of a novel BChE PET tracer as an early in vivo biomarker in the brain of a mouse model for Alzheimer disease” (Theranostics, 2021).

SMILES strings stand for the structures.

Holding throughout (set-up): Eurofins SafetyScreen44 radioligand displacement, inhibition of control specific binding
(In general: Displacement assays read how much labelled ligand stays bound in the presence of the test substance.)

For assay [1], the target named is T1, 5-HT2B(h) (Homo sapiens, UniProt P41595).
T1 construct: gene HTR2B
T1 sequence (P41595 whole entry): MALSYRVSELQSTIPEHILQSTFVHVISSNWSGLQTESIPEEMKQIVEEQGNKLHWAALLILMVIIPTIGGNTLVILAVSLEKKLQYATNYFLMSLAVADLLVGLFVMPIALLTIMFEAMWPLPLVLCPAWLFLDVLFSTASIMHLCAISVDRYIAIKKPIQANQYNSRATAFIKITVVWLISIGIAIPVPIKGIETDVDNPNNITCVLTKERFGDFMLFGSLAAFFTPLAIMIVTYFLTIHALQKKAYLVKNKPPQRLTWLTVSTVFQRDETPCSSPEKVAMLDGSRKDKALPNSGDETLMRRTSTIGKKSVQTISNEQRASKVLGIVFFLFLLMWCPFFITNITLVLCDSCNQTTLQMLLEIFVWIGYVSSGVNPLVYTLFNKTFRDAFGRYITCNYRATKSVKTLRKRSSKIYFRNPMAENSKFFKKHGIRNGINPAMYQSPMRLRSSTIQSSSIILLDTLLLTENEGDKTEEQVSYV
Put plainly: biochemical. As to conditions: reference compound.

For assay [2], the target named is T2, M5(h) (Homo sapiens, UniProt P08912).
T2 construct: gene CHRM5
T2 sequence (P08912 whole entry): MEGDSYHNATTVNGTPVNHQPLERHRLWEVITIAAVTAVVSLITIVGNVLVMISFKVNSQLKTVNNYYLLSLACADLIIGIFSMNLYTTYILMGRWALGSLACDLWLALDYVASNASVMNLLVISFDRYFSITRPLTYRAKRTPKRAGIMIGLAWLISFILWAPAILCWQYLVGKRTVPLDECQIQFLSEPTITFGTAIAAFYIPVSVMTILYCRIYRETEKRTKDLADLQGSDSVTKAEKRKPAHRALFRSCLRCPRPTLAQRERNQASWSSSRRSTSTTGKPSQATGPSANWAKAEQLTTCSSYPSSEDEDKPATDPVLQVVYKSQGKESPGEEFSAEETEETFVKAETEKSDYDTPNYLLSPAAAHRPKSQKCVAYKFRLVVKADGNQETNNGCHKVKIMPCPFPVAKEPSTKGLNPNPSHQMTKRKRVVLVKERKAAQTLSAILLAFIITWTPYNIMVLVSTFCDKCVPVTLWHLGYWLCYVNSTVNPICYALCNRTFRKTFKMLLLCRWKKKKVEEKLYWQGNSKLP
Put plainly: biochemical. The conditions noted are these: reference compound.

Assay [3] deals with T3, N neuronal α7 (h) (Homo sapiens, UniProt P36544).
T3 construct: gene CHRNA7
T3 sequence (P36544 whole entry): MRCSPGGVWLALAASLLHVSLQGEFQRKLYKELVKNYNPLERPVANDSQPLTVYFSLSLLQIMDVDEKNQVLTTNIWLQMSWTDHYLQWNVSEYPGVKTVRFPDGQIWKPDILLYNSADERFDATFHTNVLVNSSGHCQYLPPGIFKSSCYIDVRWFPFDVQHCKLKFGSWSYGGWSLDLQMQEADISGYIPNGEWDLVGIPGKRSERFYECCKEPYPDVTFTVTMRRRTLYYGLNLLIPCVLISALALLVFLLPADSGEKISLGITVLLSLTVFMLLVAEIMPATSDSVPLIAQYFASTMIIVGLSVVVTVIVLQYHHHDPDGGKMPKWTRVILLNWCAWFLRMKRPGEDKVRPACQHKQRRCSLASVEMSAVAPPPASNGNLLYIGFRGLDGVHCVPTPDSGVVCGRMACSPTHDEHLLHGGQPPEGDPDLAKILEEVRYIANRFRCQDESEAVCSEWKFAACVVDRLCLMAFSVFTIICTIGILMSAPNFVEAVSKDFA
The conditions noted are these: reference compound; binder.

Assay [4] addresses T3, N neuronal α7 (h). As to conditions: reference compound; binder. The source holds these as a separate data set.
The target in assay [5] is T4, adrenergic receptor α1A (Homo sapiens, UniProt P35348).
T4 construct: gene ADRA1A
T4 sequence (P35348 1-466): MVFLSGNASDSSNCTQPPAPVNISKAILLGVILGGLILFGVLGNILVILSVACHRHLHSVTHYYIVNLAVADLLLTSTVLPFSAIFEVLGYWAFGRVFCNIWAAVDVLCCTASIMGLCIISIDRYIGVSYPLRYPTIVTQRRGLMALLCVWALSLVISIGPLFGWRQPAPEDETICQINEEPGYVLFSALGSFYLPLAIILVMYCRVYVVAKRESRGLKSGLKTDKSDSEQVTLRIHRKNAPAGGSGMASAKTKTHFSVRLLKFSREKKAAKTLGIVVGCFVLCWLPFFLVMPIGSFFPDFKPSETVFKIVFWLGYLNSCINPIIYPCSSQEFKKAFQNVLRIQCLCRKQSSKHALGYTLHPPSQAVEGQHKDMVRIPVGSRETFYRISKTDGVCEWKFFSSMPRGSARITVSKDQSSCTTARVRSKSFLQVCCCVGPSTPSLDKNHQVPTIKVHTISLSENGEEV
The conditions noted are these: reference compound; binder.

For assay [6], the target named is T4, adrenergic receptor α1A. As to conditions: reference compound; binder. The source holds these as a separate data set.

For orientation: Ki means a dissociation constant, usually derived from enzyme kinetics or from competition with a known ligand. Low readings indicate higher affinity, high ones lower affinity. Take `COc1cc(CC(C)N)c(OC)cc1I` (racemic) [(±)DOI]: in assay [1], the Ki amounted to 1.8 nM.

The compound `C[N+]1(C)CCC(OC(=O)C(c2ccccc2)c2ccccc2)CC1` [4-DAMP] came in with a Ki in assay [2] of 0.5 nM.

For orientation: IC50 means the concentration that inhibits the measured activity by half. Higher therefore signals lower potency. In assay [3], `Clc1ccc(C2CC3CCC2N3)cn1` (racemic) [(±)epibatidine] came in with an IC50 of 86 nM. The affinity in assay [4] corresponds to a Ki of 75 nM.

The compound `COc1cccc(OC)c1OCCNCC1COc2ccccc2O1` (stereo not drawn) [WB 4101] had a Ki in assay [5] of 0.3 nM. Besides, the IC50 in assay [6] is 0.61 nM.
